Results: ChEMBL document CHEMBL5096222, “Discovery of a Trifluoromethoxy Cyclopentanone Benzothiazole Receptor-Interacting Protein Kinase 1 Inhibitor as the Treatment for Alzheimer's Disease” (J Med Chem, 2022)

Experiments:
HT-29 = assay: Anti-necroptotic activity in TSZ induced human HT-29 cells assessed as increase in cell viability pretreated with compound followed by TSZ stimulation and measured after 16 hrs by celltiter-glo luminescent cell viability assay; format: functional, cell-based
[1] = Cytotoxicity against human HT-29 cells assessed as reduction in cell viability by celltiter-glo luminescent cell viability assay; format: toxicity, cell-based
[2] = molecular target: T1, Receptor-interacting serine/threonine-protein kinase 1 (Homo sapiens, UniProt Q13546); assay: Binding affinity to recombinant human wild type partial length RIPK1 (M1 to K305 residues) expressed in bacterial expression system by KINOMEscan TM assay
T1 sequence (Q13546 whole entry): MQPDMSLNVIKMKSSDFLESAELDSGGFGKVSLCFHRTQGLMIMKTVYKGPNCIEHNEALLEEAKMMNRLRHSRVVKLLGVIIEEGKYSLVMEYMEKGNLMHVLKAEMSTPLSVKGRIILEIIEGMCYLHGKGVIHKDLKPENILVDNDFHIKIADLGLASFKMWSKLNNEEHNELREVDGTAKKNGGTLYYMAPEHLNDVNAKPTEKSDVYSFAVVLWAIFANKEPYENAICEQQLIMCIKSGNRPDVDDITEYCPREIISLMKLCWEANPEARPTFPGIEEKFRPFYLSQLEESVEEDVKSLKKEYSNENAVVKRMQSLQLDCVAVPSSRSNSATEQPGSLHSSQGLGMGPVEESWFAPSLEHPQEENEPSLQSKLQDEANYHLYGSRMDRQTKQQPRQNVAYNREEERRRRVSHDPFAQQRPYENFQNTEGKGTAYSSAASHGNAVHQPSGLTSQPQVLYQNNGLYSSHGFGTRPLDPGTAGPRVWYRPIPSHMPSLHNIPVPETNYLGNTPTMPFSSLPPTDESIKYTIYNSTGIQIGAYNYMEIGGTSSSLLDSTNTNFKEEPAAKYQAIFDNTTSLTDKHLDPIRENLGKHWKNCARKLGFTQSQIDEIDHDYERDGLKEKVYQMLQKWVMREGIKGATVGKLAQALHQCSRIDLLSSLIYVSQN

[3] = molecular target: Receptor-interacting serine/threonine-protein kinase 3 (Homo sapiens, UniProt Q9Y572); assay: Binding affinity to recombinant human wild type partial length RIPK3 (M1 to Q307 residues) expressed in bacterial expression system by KINOMEscan TM assay
Sequence of Receptor-interacting serine/threonine-protein kinase 3 (Q9Y572 whole entry, the tested form may be a part): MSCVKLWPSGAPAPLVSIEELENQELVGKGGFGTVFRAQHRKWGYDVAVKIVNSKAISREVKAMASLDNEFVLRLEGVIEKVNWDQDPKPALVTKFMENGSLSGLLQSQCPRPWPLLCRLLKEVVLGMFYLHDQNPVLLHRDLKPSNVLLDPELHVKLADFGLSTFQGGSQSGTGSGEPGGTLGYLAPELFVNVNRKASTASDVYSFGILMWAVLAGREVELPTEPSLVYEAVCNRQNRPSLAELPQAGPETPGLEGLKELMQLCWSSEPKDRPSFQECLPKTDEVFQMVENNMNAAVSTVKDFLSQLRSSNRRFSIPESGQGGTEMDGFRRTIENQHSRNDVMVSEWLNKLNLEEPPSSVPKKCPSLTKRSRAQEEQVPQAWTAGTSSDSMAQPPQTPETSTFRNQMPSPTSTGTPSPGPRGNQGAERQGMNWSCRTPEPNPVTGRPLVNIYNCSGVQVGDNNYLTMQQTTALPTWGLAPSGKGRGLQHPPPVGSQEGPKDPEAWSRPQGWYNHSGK

Kd [2]	Kd [3]	Structure (SMILES)	EC50 (HT-29)	CC50 [1]
25 nM	> 5000 nM	CC1(C)CC1C(=O)Nc1nc2cc(Oc3ccc(F)c(NC(=O)Cc4cccc(OC(F)(F)F)c4)c3)c(F)cc2s1 (stereo not drawn)	12 nM	> 50000 nM
4.5 nM	> 5000 nM	O=C1CCC(C(=O)Nc2nc3cc(Oc4ccc(F)c(NC(=O)Cc5cccc(OC(F)(F)F)c5)c4)c(F)cc3s2)CC1	10 nM	> 50000 nM
